Source: paper PMC9697349, “Mouse Pharmacokinetics and In Vitro Metabolism of SH-11037 and SH-11008, Synthetic Homoisoflavonoids for Retinal Neovascularization” (Pharmaceutics, 2022)

Key:
[1] = assay type: in vitro ADME; settings: BNPP 1 mM, 2 h preincubation; SH-11037 1 µM, mouse eye homogenate, 1 min
Method: (§1) Chemical inhibition assay was conducted in mouse, dog, and human plasma and mouse eye homogenate to identify the enzyme(s) involved in the hydrolysis of SH-11037. BW284c51 [16], DTNB [17], EPZ [18], and BNPP [19, 20] were used as selective inhibitors of acetylcholinesterase (AChE), paraoxonase 1 (PON1), butyrylcholinesterase (BchE), and carboxylesterase (CES), respectively. Mouse eyes (male ICR mouse, 8 weeks old) taken immediately after CO2 asphyxiation were homogenized by an electric tissue homogenizer (Tissue Master-125, Omni International, Kennesaw, GA, USA) in an equal amount of 0.1 M potassium phosphate buffer (pH 7.4) on ice. The resulting homogenate was then centrifuged at 3000× g for 20 min. The supernatant was stored at −80 °C until the experiment. DMSO stock solutions of the inhibitors (0.4, 4 and 40 mM) were mixed with plasma diluted 3-fold with 0.1 M phosphate buffer (pH 7.4) to a final volume of 160 μL and final inhibitor concentrations of 0.01, 0.1, and 1 mM. The supernatant of mouse eye homogenate was treated similarly with only BNPP as the inhibitor and a single inhibitor concentration of 1 mM. The resulting pre-incubation solutions were then incubated for 2 h at 37 °C in a shaking water bath. SH-11037 (40 μM) in 50 vol% aqueous CH3CN was mixed with the pre-incubation solutions to a final volume of 160 μL and a final concentration of 1 μM. The resulting solutions were then incubated at 37 °C in a shaking water bath. The incubations were terminated at selected times by adding 160 µL of ice-cold CH3CN containing glipizide (500 ng/mL) as the IS. The resulting mixture was vortexed, sonicated, and centrifuged at 3000× g for 20 min. Aliquots of the supernatant were subjected to LC-MS/MS analysis described below in Section 2.6.2.
(§2) The LC-MS/MS system consisted of Agilent 1290 Infinity HPLC system and Agilent 6530 Accurate-Mass Quadrupole Time-of-Flight (Q-TOF) mass spectrometer equipped with dual AJS ESI ion source (Agilent Technologies Korea, Seoul, Korea). Chromatographic separation was performed on an Agilent Eclipse Plus C18 column (2.1 × 100 mm, 3.5 μm) with a Phenomenex Security Guard C18 guard column (4 × 20 mm) maintained at 40 °C. The mobile phase consisted of 0.1% formic acid in deionized water (A) and 0.1% formic acid in CH3CN (B): 0~2 min 5% B, 2~7 min to 95% B, and 7~10 min 95% B. Total run time including a 5 min equilibration time was 15 min. The flow rate was 0.4 mL/min. The injection volume was 5 µL. The mass spectrometer was operated in a positive Auto MS/MS scan mode with a full scan mass range of m/z 100–1000, fragmentor voltage 150 V, and CE 30 eV, selecting the two most intense precursor ions for collision-induced dissociation. Putative metabolites were identified using Agilent Mass Hunter Metabolite ID software (ver.B.04.00) followed by manual interpretation of the spectral data. Chromatograms and mass spectra were extracted using Agilent Mass Hunter Qualitative Analysis software (ver. B.05.00).

[2] = tested on: hydrolysis of SH-11037 in mouse plasma; assay type: in vitro ADME; settings: inhibitor 1 mM; SH-11037 1 µM, mouse plasma, 1 min, 37 °C
Method: as §1, §2

[3] = set-up: method as in PMID 30713251; settings: cited from earlier work

Structure (SMILES) | effect of inhibitor on SH-11037 hydrolysis [1] | SH-11008 Formation (%) in presence of inhibitor [2] | oral absorption [3] | systemic clearance (CL) [3]
O=[N+]([O-])c1ccc(OP(=O)(O)Oc2ccc([N+](=O)[O-])cc2)cc1 [BNPP, bis(4-nitrophenyl)phosphate, reference compound] | inhibited the hydrolysis nearly completely | completely inhibited | – | –
COc1ccc(CC2COc3cc(O)c(OC)c(O)c3C2=O)cc1O (stereo not shown) [cremastranone, Cremastranone] | – | – | poor | high
